Laboratory results: patent US20150203526A1, “NOVEL 19-NOR-STEROIDS AND THEIR USE FOR TREATING PROGESTERONE- DEPENDENT CONDITIONS” (REPROS THERAPEUTICS INC., priority 2010, published 2015)

Tests used:
[1] = Cmax after vaginal administration extrapolated from beagles to humans; type: in vivo; details: for Predicted Cmax for vaginal administration as percentage of the same dose administered orally: humans
Description: FIG. 2 illustrates the actual Cmax observed for Proellex (CDB-4124) and its monodemethylated metabolite CDB-4453, following oral administration of CDB-4124 at 12.5 mg, 25 mg and 50 mg doses as well as the projected Cmax for 3 mg, 6 mg and 9 mg doses. FIG. 2 also illustrates the actual Cmax observed for Proellex (CDB-4124) and its monodemethylated metabolite CDB-4453, following vaginal administration of CDB-4124 at 12.5 mg, 25 mg and 50 mg doses.
The maximum circulating concentrations (Cmax) of CDB-4124 obtained following vaginal administration to beagles were extrapolated to humans for the 12.5 mg, 25 mg and 50 mg doses actually administered during the Phase III clinical studies.
Because a high concentration of the drug in the systemic circulation (and associated first pass metabolism of the drug) is not reached by local administration, avoidance of the severe liver toxicity observed in a small percentage of subjects following oral administration of CDB-4124 in previous Phase III clinical studies at doses of 25 and 50 mg is a surprising advantage of administering the drug locally. Similar advantages should inure to local administration of other antiprogestins.

[2] = tested on: progesterone-induced endometrial proliferation; test: Anti-Clauberg study, subcutaneous vs oral; type: in vivo, rabbits
Excerpt: FIG. 3 illustrates a comparison of the inhibition of progesterone-induced endometrial proliferation in estradiol-primed immature rabbits following subcutaneous injection and oral administration of CDB-4124
To determine whether the low circulating levels of CDB-4124 when administered locally could have any impact predictive of efficacy, an anti-Clauberg study was run in which immature estradiol-primed rabbits were coadministered progesterone and various doses of CDB-4124 by either subcutaneous or oral administration. At least 3 different highly trained individuals evaluated the rabbit uterus for glandular growth, for complexity and overall progesterone-induced “development”. The inhibition (by percentage) of progesterone-induced endometrial proliferation at each dose was assayed. […] However, maximal inhibition required a ˜8-fold increase in dosage when administered orally (i.e. 8 mg/kg). Importantly 8 mg/kg corresponds closely to the 50 mg/day dose of CDB-4124 administered to the female subjects described in Example 3.

## COCC(=O)[C@@]1(OC(C)=O)CC[C@H]2[C@@H]3CCC4=CC(=O)CCC4=C3[C@@H](c3ccc(N(C)C)cc3)C[C@@]21C [CDB-4124]
[1]; 12.5 mg dose
  Predicted Cmax for vaginal administration as percentage of the same dose administered orally: approximately 6.5%
[1]; 12.5 mg vaginal vs 50 mg oral
  Cmax with 12.5 mg vaginal dose relative to 50 mg oral dose: 2%
[1]; 50 mg dose
  Predicted Cmax for vaginal administration as percentage of the same dose administered orally: approximately 2%
[2]; oral
  Dose required for maximal inhibition: 8 mg/kg
[2]; oral vs subcutaneous
  Increase in dosage required for maximal inhibition, oral vs subcutaneous: ~8 fold
[2]; subcutaneous
  Dose at which maximal inhibition was observed: less than 1 mg/kg
